This passage reports IC50 results from ChEMBL document CHEMBL1134400, “Short peptides with induced beta-turn inhibit the interaction between HIV-1 gp120 and CD4” (J Med Chem, 2001).

Residues, ends and D or L forms follow the SMILES beside them.

This experiment has as its system Human immunodeficiency virus 1. Description: Inhibitory activity against interaction between HIV-1 gp120 and CD4. Format: functional.
H-PSFDLQ-OH: 6 µM corresponded to half-maximal inhibition (IC50).
In turn, H-ARQPSFDLQCGF-OH registered a half-inhibitory concentration (IC50) of 50 µM.
The value for `CC(C)C[C@H](NC(=O)[C@H](CC(=O)O)NC(=O)[C@H](Cc1ccccc1)NC(=O)[C@H](CO)NC(=O)[C@@H]1CCCN1C(=O)[C@H](CCC(N)=O)NC(=O)[C@@H](N)CS)C(=O)N[C@@H](CCC(N)=O)C(=O)N[C@@H](CS)C(=O)O` (H-CQPSFDLQC-OH) was 1 µM.

As usually defined, the IC50 is the point on the concentration scale where inhibition reaches its midpoint. A low value points to higher potency.
